Experimental data taken from US20250270159A1, “1-(CYCLOBUTANEMETHYLIDENE)-2, 4, 5-TRIMETHOXYBENZENE COMPOUND AND PREPARATION METHOD AND USE THEREOF” (CHENGDU XINRUI TAIKANG TECHNOLOGY CO., LTD., priority 2023, published 2025).

Columns and labels:
[1] = tested on: neurons of substantia nigra region and striatum of PD mice; assay: HE staining of substantia nigra and striatum of PD mice; assay type: in vivo, C57 mice; settings: Group D, CTMB 20 mg/kg ip, 4 weeks; compared with model group; FIG. 5-7
Procedure: (§1) The mice were randomly divided into a sham operation group (group S, given a blank emulsion with a volume equal to that of the administered group), a model group (group M, given a blank emulsion with a volume equal to that of the administered group), a CTMB group (20 mg/kg, group D), and a levodopa group (levodopa: benserazide hydrochloride=4:1, 12 mg/kg, group L), each group included 10-12 mice, and all of them were administered intraperitoneally.
(§2) After completing the evaluation of motor function after 4 weeks of drug administration, the mice were deeply anesthetized, perfused with 20 mL of saline and 20 mL of 4% paraformaldehyde via the heart, and the brains were rapidly severed and extracted from the head, which were then preserved and fixed in 4% paraformaldehyde for 72 h after removal, and then embedded with paraffin to prepare the slices with a thickness of 4 μm for subsequent pathological and histological studies.
Hematoxylin-eosin (HE) staining may be used to observe changes in the pathological condition of brain tissue. […]

[2] = tested on: IL-1; assay: IL-1 in cerebral cortex of TBI rats; assay type: in vivo, SD rats; settings: 30 mg/kg ip 2 h after TBI; 24 h after administration; FIG. 3
Procedure: (§3) The experimental grouping and drug administration plan were as follows. • Sham operation group (Group P): saline was given with the same volume as in the CTMB group; • Model group (T group): a blank emulsion was given with the same volume as in the CTMB group; • Medium dose group (Group M): a dose of 30 mg/kg of CTMB emulsion injection was given.
The experimental grouping and drug administration plan were the same as the test 3. After 2 h of the TBI modeling, different groups of rats were administered intraperitoneally. After 24 h of the administration, the rats were deeply anesthetized, the head was severed and the brain was removed, about 60-120 mg of hemisphere cortex was taken out from the hemisphere on the blood side, 10 times the volume of ice-cold centrifugal buffer used for biochemical assays was added, homogenization was carried out in an ice bath for 10 min, and centrifugation was carried out at 4° C. and 14000 rpm/min for 30 min. The supernatant was extracted, and inflammatory factors IL-1, IL-6, and TNF-α were tested according to the instructions of IL-1, IL-6, and TNF-α assay kits, respectively.

[3] = tested on: superoxide dismutase (SOD); assay: SOD activity in striatum of PD mice; assay type: in vivo, C57 mice; settings: Group D, CTMB 20 mg/kg ip, after 4 weeks, injured side
Procedure: as §1
Malondialdehyde (MDA) is a commonly used indicator of membrane lipid peroxidation, reduced glutathione (GSH) is one of the most commonly used non-enzymatic indicators of antioxidant substances, and superoxide dismutase (SOD) is a common indicator of antioxidant enzymes. After completing the evaluation of motor function after 4 weeks of drug administration, the mice were deeply anesthetized and perfused with 20 mL of saline via the heart. The brain was rapidly severed to isolate the striatal region on the injured side (right side), weighed, and placed into a 1.5 mL EP tube, and homogenized at low temperature by adding phosphate-buffered saline (PBS) at the ratio of a weight of animal tissues (g) to a volume of homogenization medium (mL) of 1:9. […]

[4] = tested on: neurons in the substantia nigra region of the midbrain of PD mice; assay: Niehl's staining, number of neuronal Niehl's bodies in substantia nigra of PD mice; assay type: in vivo, C57 mice; settings: Group D, CTMB 20 mg/kg ip, after 4 weeks of administration
Procedure: as §1, §2
Niehl's staining was used to identify Niehl's bodies in neuronal cells.

[5] = tested on: GABA; assay: GABA content in brain of TBI rats; assay type: in vivo, SD rats; settings: 30 mg/kg ip, 7 d continuous administration, FIG. 4
Procedure: as §3
The experimental grouping and drug administration plan were the same as the test 3. After 7 d of continuous administration to each group, the rats were deeply anesthetized, the heads were severed and the brains were removed, about 60-120 mg of hemispheric cortex on the blood side was taken out, 10 times volume of ice-cold centrifugation buffer used for biochemical assay was added, homogenized for 10 min under an ice bath, and then centrifuged for 30 min at 4° C. and 14000 rpm/min. The supernatants were taken to test the GLT-1 and GABA content according to the instructions of GLT-1 and GABA content assay kit, respectively. Glutamate transporter 1 (GLT-1) is an important glutamate transporter in the brain that transports extracellular glutamate to the intracellular compartment. γ-aminobutyric acid (GABA) is an important inhibitory neurotransmitter, and a dramatic increase in the concentration of extracellular glutamate in pathological conditions leads to neuronal hyperexcitability toxicity.

COc1cc(OC)c(OC)cc1C=C1CCC1 [CTMB, 1-(cyclobutylidenemethyl)-2,4,5-trimethoxybenzene]
degree of pathological damage to the substantia nigra region and striatum [1]: reduced | content of IL-1 in cerebral cortex tissue [2]: significantly reduced | SOD [3]: 80.24 ± 10.46 U/mg protein | Number of Niehl's bodies [4]: 55.5 ± 4.0 | GABA content in brain [5]: increases the content of GABA
